Five compounds from patent US20210260225A1, “PROTECTION OF BIOLOGICALLY ACTIVE MOLECULES DURING RADIATION STERILIZATION” (Qiagen Sciences LLC, priority 2018, published 2021) can be followed below.

The subject of experiment [1] is whole blood samples. Description: Mitogenic activity of PHA-P formulation with radioprotectant additives, with or without E-Beam (IFN-γ secretion, QuantiFERON ELISA). It counts as cell-based, human. Conditions: E-Beam 0.0 kGy; additive 5.0 mM; vs untreated control without additives; 6 donors.
For experiment [2], the system named is whole blood samples. The experiment is described as above. It counts as cell-based, human. Conditions: for Group Mean Percentage of Mitogenic Activity: additive 5.0 mM, vs untreated control without additives; for Group Mean Percentage of Mitogenic Activity / Concentration-dependent protection of PHA-P mitogenic activity (FIG. 1) / PHA-P Formulation Potency with Additives: 6 donors; for Concentration-dependent protection of PHA-P mitogenic activity (FIG. 1): E-beam 25 kGy in solution, cysteine 1.0-50 mM, melatonin 0.2-10 mM; for PHA mitogenic activity, % of PHA control formulation (FIG. 1): E-Beam 25 kGy, control without additive and without sterilization; for PHA-P Formulation Potency with Additives: no irradiation, vs same formulation without additives (100%). As for the experimental part:
Cysteine (closed circles) and melatonin (open circles) were dissolved in the same PHA-P formulation to various final concentrations. The mitogenic activities were determined by measuring IFN-γ secretion in whole blood samples from six blood donors using QuantiFERON® ELISA according to the manufacturer's instructions (QIAGEN, Inc., Germantown, Md.). Group mean percentages of mitogenic activity over controls (PHA-P alone without any additives) are presented.
L-cysteine was dissolved in a PHA-P formulation to 1.0-50 mM. Due to its lower water solubility, melatonin stock solution at 200 mM was first prepared in 100% ethyl alcohol. The stocks were then added into the PHA-P formulation to make final concentrations from 0.2-10 mM. After the E-Beam treatment, potencies of PHA-P formulations were tested with whole blood samples and mitogenic activity was determined using QuantiFERON® ELISA (QIAGEN, Inc., Germantown, Md.) according to the manufacturer's instructions.

Experiment [3] relates to white blood cells present in human whole blood samples. Kind of experiment: QFM (anti-CD3 + R848) stimulatory activity after E-beam irradiation (IFN-γ release in whole blood, ELISA). It counts as cell-based. To be noted: for Protection of stimulatory activities of anti-CD3 and R848 against E-beam (FIG. 8): 10 mM Cys or 3.0 mM G-SH, E-beam irradiated; for Protective effect on combined anti-CD3 and R848 activity, titration of radioprotectant (FIG. 9): 25 kGy E-beam, radioprotectant 1.0 to 10 mM. Here is the method: (§1) Following incubation with the QFM samples in the QFN tubes, whole blood sample processing, plasma harvesting and IFN-γ ELISA were performed according to the QuantiFERON®-TB Gold Plus package insert (QFN-TB Gold Plus, QIAGEN, Inc., Germantown, Md.) except that the plasma samples were diluted 1:10 in ELISA kit Green Diluent immediately before testing on 8-point standard curves.
For orientation: ELISA stands for enzyme-linked immunosorbent assay.

Experiment [4] relates to T-cells present in a whole human blood sample. Kind of experiment: Anti-CD3 antibody T-cell stimulatory activity after E-beam irradiation (IFN-γ secretion in whole blood, ELISA). It counts as cell-based. Conditions: for Protection of anti-CD3 antibody stimulatory activity against E-beam (FIG. 4): 10 mM Cys or 3.0 mM G-SH in DPBS, E-beam doses up to 25 kGy; for Protective effect on anti-CD3 activity, titration of radioprotectant (FIG. 5): 25 kGy E-beam, radioprotectant 1.0 to 10 mM. As for the experimental part:
Anti-CD3 antibody samples were dissolved in Dulbecco's phosphate-buffered saline (DPBS) and diluted to a concentration of 66.7 μg/mL, then exposed to various doses of E-beam irradiation in the presence or absence of 10 mM cysteine (Cys) or 3 mM glutathione (G-SH). The treated antibody samples were tested for their T-cell stimulatory activity by determining their ability to induce interferon-gamma (IFNγ) secretion by T-cells present in a whole human blood sample obtained from a group of six randomly selected donors, using 0.10 μg of anti-CD3 antibody per mL of whole blood in QuantiFERON® (QFN) Nil tubes (QIAGEN, Inc., Germantown, Md.). Following the incubation of the whole blood samples with the anti-CD3 antibody in the QFN Nil tubes, blood processing, plasma harvesting and IFN-γ detection by enzyme-linked immunosorbent assay (ELISA) were performed according to the manufacturer's instructions as found in the QuantiFERON®-TB Gold Plus package insert (QFN-TB Gold Plus, QIAGEN, Inc., Germantown, Md.) except that the plasma samples were diluted 1 to 10 in ELISA kit Green Diluent immediately before testing on 8-point standard curves.

Experiment [5] concerns white blood cells present in human whole blood samples. Kind of experiment: Concanavalin A activity after E-beam irradiation (IFN-γ release in whole blood, ELISA). Conditions: for Protection of ConA stimulatory activity against E-beam (FIG. 12): 10 mM Cys or 3.0 mM G-SH, E-beam irradiated; for Protective effect on ConA activity, titration of radioprotectant (FIG. 13): 25 kGy E-beam, radioprotectant 1.0 to 10 mM. It counts as cell-based.

The test system is the same in experiment [6]. Description: R848 TLR agonist (NK cell stimulatory) activity after E-beam irradiation (IFN-γ release in whole blood, ELISA). The experiment is classed as cell-based. To be noted: for Protection of R848 stimulatory activity against E-beam (FIG. 6): 10 mM Cys or 3.0 mM G-SH, E-beam treated; for Protective effect on R848 activity, titration of radioprotectant (FIG. 7): 25 kGy E-beam, radioprotectant 1.0 to 10 mM. As for the experimental part: as §1, with “R848 (resiquimod, CAS 144875-48-9) is a toll-like receptor (TLR) agonist which can stimulate biological responses by natural killer (NK) cells, and its activity can be measured in the […] tubes (QIAGEN, Inc., Germantown, Md.) QFN whole blood culture system. […] Following” for “Following”, “R848” for “QFM”

Experiment [7] has the same test system. Kind of experiment: Pokeweed mitogen activity after E-beam irradiation (IFN-γ release in whole blood, ELISA). The experiment is classed as cell-based. Conditions: for Protection of PWM stimulatory activity against E-beam (FIG. 10): 10 mM Cys or 3.0 mM G-SH, E-beam irradiated; for Protective effect on PWM activity, titration of radioprotectant (FIG. 11): 25 kGy E-beam, radioprotectant 1.0 to 10 mM. Here is the method: Pokeweed Mitogen (PWM) samples were dissolved in DPBS at a concentration of 33.3 μg/mL and treated with various doses of E-beam irradiation in the presence or absence of 10 mM cysteine (Cys) or 3 mM glutathione (G-SH). The treated PWM samples were tested for their biological activity (ability to elicit IFNγ release during an in vitro incubation) on white blood cells present in human whole blood samples, collected from a group of six randomly selected donors, using 1.0 μg of PWM per mL of whole blood in QFN Nil tubes. Following incubation with the PWM samples in the QFN tubes, whole blood sample processing, plasma harvesting and IFN-γ ELISA were performed according to the QuantiFERON®-TB Gold Plus package insert (QFN-TB Gold Plus, QIAGEN, Inc., Germantown, Md.) except that the plasma samples were diluted 1:10 in ELISA kit Green Diluent immediately before testing on 8-point standard curves.

The subject of experiment [8] is whole blood samples. Kind of experiment: Mitogenic potency of spray-dried PHA in QuantiFERON Mitogen Control blood collection tubes after radiation sterilization (IFN-γ by QuantiFERON ELISA). Conditions: for PHA mitogenic response, % of control (FIG. 2): control: no radioprotectant, no sterilization, 8 donors. It counts as cell-based, human.
Experiment [9] concerns whole blood samples. Description: Storage stability of mitogenic activity of radiation sterilized spray-dried PHA tubes with or without cysteine. It counts as cell-based, human. To be noted: 5.0 mM cysteine; E-Beam sterilized; subsequent time points extending beyond eight months post-production. Here is the method: QuantiFERON® Mitogen Control blood collection tubes were produced with and without cysteine (5.0 mM final concentration in liquid mitogen formulation) and sterilized with E-Beam radiation. Mitogen tubes' biological (mitogenic) activities were tested over time and are presented as % potency differences of the activity of mitogen tubes formulated with cysteine compared to mitogen tubes formulated without cysteine. Each dot in the figure represents the % activity of group mean at each time point.
Mitogen (spray-dried PHA) tubes were produced and radiation sterilized as described in Example 1, comparing PHA preparations without added cysteine to PHA preparations containing 5.0 mM cysteine. The long-term storage stability of the radioprotective effect of cysteine on the mitogenic activity of spray-dried PHA was also assessed.
Following spray-drying and radiation sterilization the tubes were held for various time periods before being tested for mitogenic activity as described previously.

Where [10] appears, read: spray-dried tubes after radiation sterilization, cysteine 5 mM where present.

For the compound `N[C@@H](CCC(=O)N[C@@H](CS)C(=O)NCC(=O)O)C(=O)O` [Glutathione Reduced, γ-L-Glutamyl-L-cysteinylglycine], the “Group Mean Percentage of Mitogenic Activity” value (“Group Mean Percentage” for short) in the experiment on whole blood samples [1] was found to be 116%. The “Group Mean Percentage” value with whole blood samples [2] (E-Beam 8.30 kGy) is on record as 53%. The “Group Mean Percentage” value in the experiment on whole blood samples [2] (E-Beam 8.30 kGy, listed as reduced glutathione) is listed as 53%. In addition, the “Group Mean Percentage” value with whole blood samples [2] (E-Beam 16.7 kGy) was determined as 23%. Also, the “Group Mean Percentage” value with whole blood samples [2] (E-Beam 25.0 kGy) came to 10%. In addition, in experiment [3], the “Protection of stimulatory activities of anti-CD3 and R848 against E-beam (FIG. 8)” value is given as “preserved”; the “Protective effect on combined anti-CD3 and R848 activity, titration of radioprotectant (FIG. 9)” value is listed as “dose-dependent increase”. For the same compound, in experiment [4], the “Protection of anti-CD3 antibody stimulatory activity against E-beam (FIG. 4)” value is given as “maintained stimulatory activities” and the “Protective effect on anti-CD3 activity, titration of radioprotectant (FIG. 5)” value is listed as “dose-dependent increase”. In [5], the “Protection of ConA stimulatory activity against E-beam (FIG. 12)” value is “preserved” and the “Protective effect on ConA activity, titration of radioprotectant (FIG. 13)” value is reported as “dose-dependent increase”. In [6], the “Protection of R848 stimulatory activity against E-beam (FIG. 6)” value is “retained the stimulatory activities” and the “Protective effect on R848 activity, titration of radioprotectant (FIG. 7)” value is recorded as “dose-dependent increase”. In [7], the “Protection of PWM stimulatory activity against E-beam (FIG. 10)” value is reported as “preserved” and the “Protective effect on PWM activity, titration of radioprotectant (FIG. 11)” value was “dose-dependent increase”.
Turning to `N[C@@H](CS)C(=O)O` [L-Cysteine, 2-amino-3-sulfhydrylpropanoic acid], the “Group Mean Percentage” value with whole blood samples [1] stood at 99%; with whole blood samples [2] (E-Beam 8.30 kGy), 68%; in the experiment with whole blood samples [2] (E-Beam 8.30 kGy, listed as L-cysteine), 68%; in the experiment with whole blood samples [2] (E-Beam 16.7 kGy) it was 43%; in the experiment on whole blood samples [2] (E-Beam 25.0 kGy), 26%. In addition, the “Concentration-dependent protection of PHA-P mitogenic activity (FIG. 1)” value with whole blood samples [2] is reported as “dose dependent protection”. Also, the figures for the “PHA mitogenic activity, % of PHA control formulation (FIG. 1)” value in the experiment on whole blood samples [2] (additive 1.0 mM) and with whole blood samples [2] (additive 10 mM) were 5.9% and 38%, respectively. Moreover, the “PHA-P Formulation Potency with Additives” value in the experiment with whole blood samples [2] (additive 50 mM) is 101%; in the experiment with whole blood samples [2] (additive 50 mM, listed as cysteine), “comparable to unsupplemented PHA preparations”. In addition, the “PHA mitogenic response, % of control (FIG. 2)” value with whole blood samples [8] (setting [10]) came to 72%; in the experiment on whole blood samples [8] (spray-dried tubes, cysteine 5 mM, no radiation sterilization) it was 94.8%. Also, the “Mitogenic activity of tubes with cysteine compared to tubes without cysteine (FIG. 3)” value with whole blood samples [9] is listed as “retained relatively higher levels of mitogenic activity”.
In the case of `N[C@@H](CS)C(=O)O` (stereo in doubt) [L-Cysteine, 2-amino-3-sulfhydrylpropanoic acid], in [3], the “Protection of stimulatory activities of anti-CD3 and R848 against E-beam (FIG. 8)” value was “preserved”; the “Protective effect on combined anti-CD3 and R848 activity, titration of radioprotectant (FIG. 9)” value is on record as “dose-dependent increase”. In experiment [4], the “Protection of anti-CD3 antibody stimulatory activity against E-beam (FIG. 4)” value was “maintained stimulatory activities” and the “Protective effect on anti-CD3 activity, titration of radioprotectant (FIG. 5)” value is recorded as “dose-dependent increase”. In experiment [5], the “Protection of ConA stimulatory activity against E-beam (FIG. 12)” value was “preserved” and the “Protective effect on ConA activity, titration of radioprotectant (FIG. 13)” value was “dose-dependent increase”. In addition, in [6], the “Protection of R848 stimulatory activity against E-beam (FIG. 6)” value is reported as “retained the stimulatory activities” and the “Protective effect on R848 activity, titration of radioprotectant (FIG. 7)” value was “dose-dependent increase”. For the same compound, in experiment [7], the “Protection of PWM stimulatory activity against E-beam (FIG. 10)” value is listed as “preserved” and the “Protective effect on PWM activity, titration of radioprotectant (FIG. 11)” value is “dose-dependent increase”.
As to phytohemagglutinin [PHA], the “Mitogenic Potency after Tx, E-Beam” value in the experiment on whole blood samples [8] (E-beam 16.6-30 kGy, group mean of 11 donors vs same lot of tubes without treatment (100%)) is listed as “about 55%”. In addition, the “PHA mitogenic response, % of control (FIG. 2)” value with whole blood samples [8] (setting [10]) came to 56%.
`COc1ccc2[nH]cc(CCNC(C)=O)c2c1` [Melatonin, N-acetyl-5-methoxy tryptamine, reference compound]: the “Group Mean Percentage” value in the experiment on whole blood samples [1] is recorded as 111%; in the experiment with whole blood samples [2] (E-Beam 8.30 kGy) it was 53%; in the experiment with whole blood samples [2] (E-Beam 8.30 kGy, listed as melatonin) it was 53%; in the experiment on whole blood samples [2] (E-Beam 16.7 kGy), 26%; in the experiment with whole blood samples [2] (E-Beam 25.0 kGy) it was 7.7%. The “Concentration-dependent protection of PHA-P mitogenic activity (FIG. 1)” value in the experiment on whole blood samples [2] is “dose dependent protection”. The “PHA-P Formulation Potency with Additives” value in the experiment with whole blood samples [2] (additive 10 mM) is 98.6%; in the experiment with whole blood samples [2] (additive 10 mM, listed as melatonin), “comparable to unsupplemented PHA preparations”.
